Earlier results as cited in US20040186084A1, “Triamcinolone formulations and methods for their preparation and use” (Akorn, Inc., priority 2003, published 2004).

For `CC1(C)O[C@@H]2C[C@H]3[C@@H]4CCC5=CC(=O)C=C[C@]5(C)[C@@]4(F)[C@@H](O)C[C@]3(C)[C@]2(C(=O)CO)O1` [triamcinolone acetonide, (11β,16α)-9-fluoro-11,21-dihydroxy-16,17-[1-methylethylidenebis(oxy)]pregna-1,-4-diene-3,20-dione], the “solubility in organic solvents” value (methanol, acetone and ethyle acetate) is listed as “sparingly soluble” and the solubility in water (water) is listed as “relatively insoluble”.
